Several values for one entry are separate records, joined by “and”; a condition that tells them apart may be missing. Identical values can stand only once. Like-named read-outs stand apart in the source and are kept apart here. Blank lines part the entries; values can stand above or below the molecule they belong to.
Assays:
[1] = target: T1, PDE9A2 Q453E mutant (PDE9Q453E) (Homo sapiens, UniProt O76083, Q513E); test: PDE9A2 enzymatic assay, IC50 of inhibitors (3H-cGMP substrate); assay type: biochemical
T1 construct: The catalytic domain of the PDE9Q453E mutant (10–15 mg/mL, amino acids 181–506); made in house; host or cells: E. coli BL21 (Codonplus)
Experimental: (§1) Each measurement was repeated two times. The reaction was carried out at room temperature for 15 min and then terminated by the addition of 0.2 M ZnSO4 and 0.2 M Ba(OH)2. […] Vmax and KM values were calculated by nonlinear regression on the curve of velocity versus substrate concentration and also by Eadie-Hofstee plot. […] The IC50 values were calculated by nonlinear regression.

[2] = target: T2, wild type PDE9A2 catalytic domain (Homo sapiens, UniProt O76083); test: as above; assay type: biochemical
T2 construct: The coding region for residues 181-506 of PDE9A2 was amplified by PCR; inferred from vector pET15b and Ni-NTA purification) (N); made in house; host or cells: E. coli BL21 (Codonplus)
T2 sequence (O76083 241-566): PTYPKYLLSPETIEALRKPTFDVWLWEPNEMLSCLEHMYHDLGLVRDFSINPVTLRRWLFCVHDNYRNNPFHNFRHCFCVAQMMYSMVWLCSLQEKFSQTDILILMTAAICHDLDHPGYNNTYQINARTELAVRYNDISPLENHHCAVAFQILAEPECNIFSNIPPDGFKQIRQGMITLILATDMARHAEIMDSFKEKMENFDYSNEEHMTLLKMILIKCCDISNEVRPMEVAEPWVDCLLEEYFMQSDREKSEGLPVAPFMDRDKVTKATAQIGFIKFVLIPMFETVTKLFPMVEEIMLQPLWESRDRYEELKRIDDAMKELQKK
Experimental: as §1

[3] = target: T3, PDE9A2 E406A mutant (Homo sapiens, UniProt O76083, E466A); test: as above; assay type: biochemical
T3 construct: The coding region for residues 181-506 of PDE9A2 was amplified by PCR; inferred from vector pET15b and Ni-NTA purification) (N); made in house; host or cells: E. coli BL21 (Codonplus)
T3 sequence (O76083 241-566 E466A): as the sequence (O76083 241-566) above, with E226A counted along it
Experimental: as §1

[4] = target: T2, wild type PDE9A2 catalytic domain; test: Enzymatic assay, kinetic parameters with cAMP and cGMP as substrates; assay type: biochemical; conditions: substrate
Experimental: as §1

[5] = target: T3, PDE9A2 E406A mutant; test: as above; assay type: biochemical
Experimental: as §1

[6] = target: T1, PDE9A2 Q453E mutant (PDE9Q453E); test: as above; assay type: biochemical
Experimental: as §1

[7] = system: PDE5A Q817A mutant; conditions: PDE5A Q817A versus wild type; cited from earlier work
[8] = target: the molecule itself; test: crystal structure; PDE9Q453E catalytic domain (10-15 mg/mL) co-crystallised with 2 mM IBMX, hanging drop, 2.0 M Na formate, 0.1 M HEPES pH 7.5, 5% xylitol, 4°C; (S)-BAY73-6691 complex by soaking; two molecules in the asymmetric unit
[9] = E406A compared with wild type enzyme

IC50 [2]: 53.9 ± 1.1 µM
IC50 [3]: 31.7 ± 1.1 µM
Molecule: CC(C)Cn1c(=O)n(C)c(=O)c2[nH]cnc21 [IBMX, 3-isobutyl-1-methylxanthine]

IC50 ([2]; wild type enzyme, 30 nM 3H-cGMP, read-out: IC50): 15.9 ± 1.2 µM
IC50 ([3]; E406A mutant, 30 nM 3H-cGMP, read-out: IC50): 7.6 ± 1.1 µM
IC50 ([1]; Q453E mutant, 30 nM 3H-cGMP): 53.7 ± 1.2 µM
Molecule: CCCOc1ccccc1-c1nc2nn[nH]c2c(=O)[nH]1 [Zaprinast]

Km [4]: 113 ± 13 nM
Vmax [4]: 0.285 ± 0.008 µmol/mg/min
kcat [4]: 0.18±0.00 S^−1
fold reduction of apparent affinity, E406A versus wild type [5, 9]: 2 fold
fold reduction of catalytic activity, E406A versus wild type [5, 9]: 2 fold
Km ([5]; E406A, substrate): 311 ± 40 nM
Vmax ([5]; E406A, substrate): 0.129 ± 0.004 µmol/mg/min
kcat ([5]; E406A, substrate): 0.08±0.00 S^−1
fold loss of enzymatic efficacy kcat/KM, Q453E versus wild type ([6]; Q453E compared with wild type enzyme): about 50 fold
Km ([6]; Q453E, substrate): 2800 ± 180 nM
Vmax ([6]; Q453E, substrate): 0.139 ± 0.003 µmol/mg/min
kcat ([6]; Q453E, substrate): 0.09±0.00 S^−1
Molecule: Nc1nc2c(ncn2[C@@H]2O[C@@H]3COP(=O)(O)O[C@H]3[C@H]2O)c(=O)[nH]1 [cGMP]
fold reduction of cGMP affinity by Q817A mutation [7]: about 60 fold

Continued, molecule first:

Molecule: C[C@@H](Cc1nc2c(cnn2-c2ccccc2Cl)c(=O)[nH]1)C(F)(F)F [(S)-BAY73-6691, 1-(2-chlorophenyl)-6-(3,3,3-trifluoro-2-methylpropyl)-1H-pyrazolo [3,4-d]pyrimidin-4(5H)-one]
fold increase of IC50 (affinity decrease), Q453E mutant versus wild type ([1]; Q453E IC50 relative to wild type IC50): > 1800 fold and 1800 fold

B1: catalytic domain of the PDE9A2 Q453E mutant (amino acids 181-506) (domain or fragment, human, UniProt O76083-2 181-506, looked up)
chain: PTYPKYLLSPETIEALRKPTFDVWLWEPNEMLSCLEHMYHDLGLVRDFSINPVTLRRWLFCVHDNYRNNPFHNFRHCFCVAQMMYSMVWLCSLQEKFSQTDILILMTAAICHDLDHPGYNNTYQINARTELAVRYNDISPLENHHCAVAFQILAEPECNIFSNIPPDGFKQIRQGMITLILATDMARHAEIMDSFKEKMENFDYSNEEHMTLLKMILIKCCDISNEVRPMEVAEPWVDCLLEEYFMQSDREKSEGLPVAPFMDRDKVTKATAEIGFIKFVLIPMFETVTKLFPMVEEIMLQPLWESRDRYEELKRIDDAMKELQKK
notes: phosphodiesterase 9A, isoform PDE9A2, human, catalytic domain, residues 181-506, GenBank BC009047; numbers count on: PDE9A2; also called PDE9Q453E; PDE9 Q453E mutant; source: E. coli BL21 (Codonplus), purified (Ni-NTA, Q-Sepharose, Sephacryl S300)
binding result [8]: binds

— publication PMC3069055, “Structural Asymmetry of Phosphodiesterase-9, Potential Protonation of a Glutamic Acid, and Role of the Invariant Glutamine” (PLoS ONE, 2011)
